Experiments:
Type in all cases: cell-based
[1] = tested on: Hsp90 client protein levels (Cdk4, Akt, c-Raf, ERα, IGF1R) and Hsp70, Hsp90 in MCF-7 cells; assay: Western blot of Hsp90 client proteins and heat shock proteins; details: for ERα level: MCF-7, 20 μM; for heat shock response (Hsp70 and Hsp90 levels): MCF-7, 24 hours
Experimental: MCF-7 cells were treated with compounds 8c (20 μM and 50 μM), 13g (20 μM and 50 μM) and DDO-5936 (20 μM) or 0.5% DMSO as a negative control. The cells were incubated with the compounds or negative control for 24 hours. After incubation, the cells were rinsed with PBS (Gibco, Thermo Fisher Scientific, Waltham, MA, USA) and lysed using RIPA buffer containing 50 mM Tris–HCl pH 7.4, 150 mM NaCl, 1% NP-40, 0.5% sodium deoxycholate, and 1 mM EDTA. The RIPA buffer was further supplemented with Halt™ Protease Inhibitor Cocktail and Halt™ Phosphatase Inhibitor Cocktail (both from Thermo Fisher Scientific, Waltham, MA, USA) at a 1 : 100 dilution. The lysates were then frozen for at least 24 hours. Upon thawing, the lysates were sonicated and centrifuged at 15 000 rpm for 20 minutes at 4 °C. Only the supernatants were collected, and protein concentration was measured using the DC protein assay (Bio-Rad, Hercules, California, USA). Proteins (20 μg) were separated by SDS-PAGE on a 10% acrylamide/bisacrylamide gel, running at 80 V for 15 minutes followed by 130 V for 60 minutes. The separated proteins were then transferred onto a nitrocellulose membrane using the iBlot 2 Dry Blotting System (Thermo Fisher Scientific, Waltham, MA, USA). The membranes were blocked with 5% BSA for 1 hour at room temperature to prevent nonspecific binding. Primary antibodies were then added, and the membranes were incubated overnight at 4 °C. The primary antibodies (Cell Signaling, Danvers, MA, USA) used included anti-β-ActinMouse mAb (1 : 5000), anti-Hsp90 Rabbit mAb (1 : 1000), anti-Hsp70 Mouse mAb (1 : 1000), anti-IGF1R Rabbit (1 : 1000), anti-CDK4 Rabbit (1 : 1000), anti-ERα Mouse mAb (1 : 1000), anti-Akt Rabbit mAb (1 : 1000), and anti-c-Raf Rabbit mAb (1 : 1000). Secondary antibodies included anti-rabbit IgG, HRP-linked antibody (1 : 10 000), and anti-mouse IgG, HRP-linked antibody (1 : 10 000), which were incubated with the membranes for 1 hour at room temperature. Following washes, SuperSignal™ West Femto Maximum Sensitivity Substrate (Thermo Fisher Scientific, Waltham, MA, USA) was applied. Visualization of the blots was performed using the UVITEC Cambridge Imaging System (UVITEC, Cambridge, UK), and densitometric analysis of the western blot bands was conducted using NineAlliance software. Relative protein densities were calculated in relation to β-actin, used as a loading control.

[2] = tested on: MCF-7 breast cancer cell line; assay: MTS cell viability (antiproliferative) assay in MCF-7; details: Homo sapiens, MCF7, 72 h, MTS assay, 72 hours, mean ± SD
Experimental: Hormone-positive breast cancer cell line MCF-7 (ATCC-HTB-22; ATCC) was grown in Dulbecco's Modified Eagle's Medium (DMEM), while Ewing sarcoma cell line SK-N-MC (a kind gift from Beat Schäfer) and THP-1 (ATCC-TIB-202; ATCC) cells were grown in Roswell Park Memorial Institute (RPMI) 1640. The medium was supplemented with 10% heat-inactivated fetal bovine serum (Gibco, Thermo Fisher Scientific, Waltham, MA, USA), 100 U per mL penicillin, 100 μg per mL streptomycin, and 2 mM L-glutamine (all from Sigma-Aldrich, St. Louis, MO, USA). All cell lines were incubated at 37 °C in a 5% CO2 atmosphere.
The antiproliferative activity of the compounds was evaluated against MCF-7 (ATCC-HTB-22; ATCC), SK-N-MC (a kind gift from Beat Schäfer) and THP-1 (ATCC-TIB-202; ATCC) cancer cell lines using the MTS assay (Promega, Madison, WI, USA). Cells were seeded in 96-well plates at a density of 2 × 10^4 cells per mL in 100 μL of growth medium for THP-1 and were treated with compounds and controls directly, while 3 × 10^3 cells per mL for MCF-7 and SK-N-MC were seeded in 100 μL of growth medium and allowed to adhere overnight following the treatment. In all cases the cells were treated with respective newly prepared compounds, positive controls (17-DMAG for MCF-7 and SK-N-MC; PU-H71 for THP-1) and a vehicle control (0.5% DMSO). The incubation time after treatment was 72 hours, then CellTiter96® Aqueous One Solution Reagent (Promega, Madison, WI, USA) was added to each well. Following a 3 hours incubation, absorbance was measured at 492 nm using BioTek's Synergy™ 4 Hybrid Microplate Reader (Winooski, VT, USA). The measurements were performed in two biological repetitions and each time the experiment was performed in a triplicate. The IC50 values, representing the concentration of inhibitor required for half-maximal inhibition, are the average of three independent experiments and were calculated using GraphPad Prism 9.5.0 software (San Diego, CA, USA).

[3] = tested on: SK-N-MC cells; assay: Apoptosis assay, annexin V–PE/SytoxBlue staining, flow cytometry
Experimental: Apoptosis of SK-N-MC cells was evaluated by detecting phosphatidylserines using R-phycoerythrin–annexin V conjugate (R-PE annexin V; Invitrogen, Carlsbad, CA, USA) and nucleic acids in dead cells using SytoxBlue Dead Cell Stain (Invitrogen, Carlsbad, CA, USA), according to the manufacturer's instructions. Briefly, 2.5 × 10^5 SK-N-MC cells were seeded in six-well plates. After 24 hours, cells were washed with PBS and treated with 8c and 13g in 10 and 20 μM concentrations for 24 and 48 hours. The medium with detached cells was then collected, and attached cells were harvested and combined with the detached cells. Following two washing steps with cold PBS, cells were resuspended in 100 μL annexin-binding buffer (Invitrogen, Carlsbad, CA, USA) containing 2.5 μL annexin V–R-PE solution and 750 nM SytoxBlue, and incubated in the dark for 15 minutes at room temperature. Before measurement, 200 μL of annexin-binding buffer was added. A minimum of 10 000 events were collected using a flow cytometer (Attune NxT; Invitrogen, Carlsbad, CA, USA). Annexin V (ANV)-/SYTOX Blue (SB)-indicates viable cells, ANV+/SB− indicates early apoptotic cells, ANV+/SB+ indicates late apoptotic cells, and ANV−/SB+ indicates necrotic cells.

Row | IC50 [2] | SMILES | ERα level ([1]; 24 hours) | Hsp70 levels ([1]; MCF-7, 50 μM, 24 hours) | concentration of kinase clients Cdk4, c-Raf, IGF1R, and Akt ([1]; MCF-7, 50 μM, 24 hours) | heat shock response (Hsp70 and Hsp90 levels) [1] | induction of apoptosis (qualitative) ([3]; 10 μM and 20 μM, 24 and 48 hours) | proportion of apoptotic cells ([3]; 20 μM, 24 hours) | proportion of apoptotic cells ([3]; 20 μM, 48 hours) | proportion of apoptotic cells ([3]; 10 μM, 24 hours) | proportion of apoptotic cells ([3]; 10 μM, 48 hours)
1 | 20 ± 1.2 µM | CN(CCOc1ccccc1)C(=O)c1csc(Nc2cc(N3CCNCC3)ncn2)n1 [Compound 8c, N-Methyl-N-(2-phenoxyethyl)-2-((6-(piperazin-1-yl)pyrimidin-4-yl)amino)thiazole-4-carboxamide] | significantly influenced | statistically insignificant decrease | decreased | do not induce a heat shock response | significantly induced apoptosis | 87.5% | 87.7% | – | –
2 | 19.3 ± 2 µM | O=C(NCCOc1ccccc1)c1ccc(Nc2cc(N3CCNCC3)ncn2)cc1 [Compound 13g, N-(2-Phenoxyethyl)-4-((6-(piperazin-1-yl)pyrimidin-4-yl)amino)benzamide] | significantly influenced | – | decreased | do not induce a heat shock response | – | 42.8% | 56.8% | 27% | 11.4%
